From ChEMBL document CHEMBL5365449, “Permeation behavior of porphyrin derivatives with different functional group positions across cancer cell membranes” (Bioorg Med Chem Lett, 2023)

What was measured:
[1] = Drug accumulation of the compound in human MCF7 cells assessed as accumulation at lysosome by fluorescence microscopy; type: ADME, subcellular
[2] = Drug accumulation of the compound in human MCF7 cells assessed as accumulation at 4 degC by fluorescence microscopy; type: ADME, cell-based
[3] = Drug accumulation of the compound in human MCF7 cells assessed as accumulation at mitochondria by fluorescence microscopy; type: ADME
[4] = Drug uptake in human MCF7 cells assessed as increase in internalization by measuring fold increase of fluorescence intensity in the presence of LDL by fluorescence spectrum analysis; type: ADME, cell-based

Row | Drug uptake [1] | Drug uptake [2] | Drug uptake [3] | fold change (FC) [4] | SMILES
1 | Active | 3.7 10^-2microM | Active | 6 | O=C(Nc1ccc(-c2c3nc(c(-c4ccccc4)c4ccc([nH]4)c(-c4ccccc4)c4nc(c(-c5ccccc5)c5ccc2[nH]5)C=C4)C=C3)cc1)c1ccccc1
2 | Active | 7.5 10^-2microM | Active | 12 | O=C(NC1=Cc2nc1c(-c1ccccc1)c1ccc([nH]1)c(-c1ccccc1)c1nc(c(-c3ccccc3)c3ccc([nH]3)c2-c2ccccc2)C=C1)c1ccccc1
